The conditions of data set [1]: in words; cited from earlier work.
For data set [2] the following is noted: in words; cited from earlier work. This is another data set of the same source.
For data set [3] the following is noted: cited from earlier work.
Data set [4] in a line: in vitro dissolution of matched cholesterol gallstones from cholecystectomy patients, 30 ml polyethylene bag model gallbladder, 180 ml/min (Table II). On the set-up: species or system human. The settings on record: five stones per set; for Mean Time (complete dissolution): mean stone weight 79-340 mg, 150 ml solvent.
Data set [5] in a line: in vitro dissolution of fresh human cholesterol gallstones in a model gallbladder at high flow rate (Table I). The conditions noted are these: for Dissolution Rate / Dissolution Time: high flow rate; for Dissolution Rate: stone taken as 90% by weight cholesterol; for dissolution of cholesterol gallstones compared with MTBE: in words; for Dissolution Time: total dissolution, one stone of 132-175 mg per solvent. The method, then:
Their efficacy and the techniques of the present invention may be seen from the following data. In the tests described in Table I below, fresh human faceted cholesterol gallstones (kept in distilled water) were dissolved in vitro and the times were recorded for the total dissolution, using a model gallbladder at a high flow rate achieved by a metering pump. "High flow rate" as used herein will mean rates of flow in the range which can be anticipated to result in fluid turbulence for the solvent in the region of the biliary tract surrounding the calculi (gallstones). While "high" rates will vary according to solvent type and viscosity and with individual patients, it will be expected that appropriate flow rates will be at least about 20 ml/min, preferably at least about 100 ml/min, and more preferably at least about 150 ml/min. For comparison purposes a parallel test with MTBE is also shown.

The nature of data set [6]: treatment of a human patient with gallstones by solvent perfusion. The data set is classed as in vivo. The source says: Another aspect of the invention is the in vivo dissolution of gallstones using the C5 -C6 ester solvents provided herein as the solvent in a high flow rate pumping system, in particular a continuous pumping system controlled by gallbladder pressure feedback and employing a delivery system consisting of a catheter, a continuous flow pumping system, a controller and a tubing set; see aforesaid U.S. patent application No. 07/482,194, filed Feb. 20, 1990, to S. Zakko, incorporated herein by reference.
Such a pumping system, in combination with the low viscosity solvent provided herein, has the capability of emptying the gallbladder many times faster than the rate of normal gallbladder contraction, to prevent solvent from emptying into the intestine should such a gallbladder contraction occur during perfusion. […]
Further, should the pressure remain above (as may occur with the beginning of a gallbladder contraction) or below the upper and lower pressure limits in excess of empirically determined delays, or above or below the upper and lower pressure alarms, for the associated delays, the controller causes the system to enter into an alarm mode in which both pumps operate in the aspiration direction at maximum flow rate to remove the low viscosity solvent.

A short description of data set [7]: perfusion of the gallbladder of an anesthetized pig, solvent level in central venous blood by gas chromatography.
For data set [8] the following is noted: cited from earlier work. The source holds these as a separate data set.

Molecules are shown by their SMILES. Like-named read-outs stand apart in the source and are kept apart here.

Turning to `CCCCCCCC(=O)OCC(O)CO` (stereo not shown) [Monooctanoin, monooctanoin], the viscosity result in data set [1] is “relatively high viscosity”. For the same molecule, the gallstone dissolution speed entry in data set [2] is “dissolves gallstones very slowly”.
Take `CCOCC` [diethyl ether, reference compound]: the “Boiling point relative to body temperature” value in data set [3] (in words) is listed as “below body temperature”.
For `CCOC(=O)C(C)C` [ethyl isobutyrate], in data set [4], the “Overall Rate (dissolution)” value is 4.55 mg/min and the “Mean Time (complete dissolution)” value was determined as 33 min. Also, in data set [3] (Table I), the “Boiling Point” value is 112 °C. Moreover, in data set [5], the “Dissolution Rate” value was 8 mg/min, the “dissolution of cholesterol gallstones compared with MTBE” value (from here on “dissolution … compared with MTBE”) is given as “rate generally comparable to that of MTBE” and the “Dissolution Time” value was 15 min.
As for `CCOC(=O)CC` [ethyl propionate], in data set [6] (human patient), the “cholesterol concentration in the solvent during the procedure, versus previous procedures using MTBE” value is reported as “higher than concentrations observed during previous procedures conducted using MTBE”. In data set [6] (one human patient), the “treatment of a human patient to eliminate cholesterol gallstones” value is recorded as “successful treatment”. For the same molecule, the “blood level of solvent throughout the procedure” value in data set [7] (before, 1 h and 2 h of perfusion, 30 and 60 min after) is “below the level of detectability”. Further, in data set [4], the “Overall Rate (dissolution)” value is recorded as 12.22 mg/min and the “Mean Time (complete dissolution)” value was found to be 14 min. Besides, in data set [3] (Table I), the “Boiling Point” value is 99 °C. For the same molecule, in data set [5], the “Dissolution Rate” value is recorded as 13 mg/min, the “dissolution … compared with MTBE” value is reported as “rate generally comparable to that of MTBE” and the “Dissolution Time” value was determined as 10 min.
Turning to `CC(=O)OC(C)C` [isopropyl acetate], in data set [4], the “Overall Rate (dissolution)” value is reported as 5.48 mg/min and the “Mean Time (complete dissolution)” value is given as 26 min. Besides, the “Boiling Point” value in data set [3] (Table I) is 89 °C. In addition, in data set [5], the “Dissolution Rate” value is given as 9 mg/min, the “dissolution … compared with MTBE” value was “rate generally comparable to that of MTBE” and the “Dissolution Time” value is reported as 14 min.
Take `COC(C)(C)C` [methyl t-butyl ether]: the “blood level of solvent during perfusion” value in data set [7] (10 ml, 2 h gallbladder perfusion, central vein) is on record as 0.01-0.1 μl/ml. Moreover, in data set [7] (read-out: blood level of solvent during perfusion, 10 ml, 2 h gallbladder perfusion, central vein), the concentration fell in the range of 84 to 840 µM. Further, in data set [7] (thirty and sixty minutes following perfusion), the “blood level of solvent after perfusion” value is recorded as “declined after perfusion”. Moreover, in data set [4], the “Overall Rate (dissolution)” value was determined as 7.69 mg/min and the “Mean Time (complete dissolution)” value was 19 min. In data set [3] (Table I), the “Boiling Point” value was 55 °C. In data set [3], the Boiling Point is 55 °C. Besides, in data set [5], the “Dissolution Rate” value was 20 mg/min and the “Dissolution Time” value is 8 min. For the same molecule, the “side effects in patients” value in data set [8] (believed caused by increased blood levels of MTBE) is “nausea and vomiting”. Further, the “systemic toxicity, pain and intestinal damage on escape into the small intestine” value in data set [8] (escape from gallbladder into small intestine) is “signs of systemic toxicity (sedation), pain and by endoscopy, damage to the epithelium of the small intestine”. For the same molecule, the “effect of entry into the blood stream” value in data set [8] (in vivo) was “hemolysis”. Also, the renal failure result in data set [8] (reversible) is on record as “one”.
In the case of `CCCOC(C)=O` [n-propyl acetate], in data set [4], the “Overall Rate (dissolution)” value was 4.45 mg/min and the “Mean Time (complete dissolution)” value came to 35 min. Further, in data set [3] (Table I), the “Boiling Point” value is 102 °C. Moreover, in data set [5], the “Dissolution Rate” value turned out to be 14 mg/min, the “dissolution … compared with MTBE” value was “rate generally comparable to that of MTBE” and the “Dissolution Time” value is on record as 10 min.
